The assay can be described thus: Antiinflammatory activity in mouse J774.1 cells assessed as inhibition of LPS-induced NO production. It is filed as functional, cell-based.

For two molecules, IC50 results are on record in ChEMBL document CHEMBL1268862, “Eucophylline, a Tetracyclic Vinylquinoline Alkaloid from Leuconotis eugenifolius” (J Nat Prod, 2010).

`C=Cc1c2c(nc3cc(O)c([C@@H]4C[C@@]5(CC)CCCN6CCc7c(n4c4ccccc74)[C@H]65)cc13)N1CCC[C@](CC)(C2)C1` [LEUCOPHYLLIDINE]: the IC50 was 7.1 µM.
With `CNC(=N)NCCC[C@H](N)C(=O)O` [TILARGININE], the IC50 stood at 22 µg/mL.

A word on the IC50: it is the concentration at which inhibition is half-maximal.
